± gives the expanded uncertainty stated by the source.
Assay: excess molar enthalpy (molar enthalpy of mixing); xn = mol fraction of the nth substance listed
Conditions: 298.15 K, 100 kPa, Liquid, Flow calorimetry

Row | Structure (SMILES) | excess molar enthalpy (x2 = 0.05) [kcal/mol] | excess molar enthalpy (x2 = 0.1) [kcal/mol] | excess molar enthalpy (x2 = 0.15) [kcal/mol] | excess molar enthalpy (x2 = 0.2) [kcal/mol] | excess molar enthalpy (x2 = 0.25) [kcal/mol] | excess molar enthalpy (x2 = 0.3) [kcal/mol] | excess molar enthalpy (x2 = 0.35) [kcal/mol] | excess molar enthalpy (x2 = 0.4) [kcal/mol] | excess molar enthalpy (x2 = 0.45) [kcal/mol] | excess molar enthalpy (x2 = 0.5) [kcal/mol] | excess molar enthalpy (x2 = 0.6) [kcal/mol] | excess molar enthalpy (x2 = 0.65) [kcal/mol] | excess molar enthalpy (x2 = 0.7) [kcal/mol] | excess molar enthalpy (x2 = 0.75) [kcal/mol] | excess molar enthalpy (x2 = 0.8) [kcal/mol] | excess molar enthalpy (x2 = 0.85) [kcal/mol] | excess molar enthalpy (x2 = 0.9) [kcal/mol] | excess molar enthalpy (x2 = 0.95) [kcal/mol] | other results
1 | CC(=O)OC(C)=O [ethanoic anhydride] + CC(=O)O |  |  |  |  |  |  |  |  |  |  |  |  |  |  |  |  |  |  | excess molar enthalpy (x1 = 0.05): 0.0108 ± 0.000717 kcal/mol; excess molar enthalpy (x1 = 0.1): 0.0213 ± 0.0012 kcal/mol; excess molar enthalpy (x1 = 0.15): 0.032 ± 0.00167 kcal/mol; excess molar enthalpy (x1 = 0.2): 0.0423 ± 0.00215 kcal/mol; excess molar enthalpy (x1 = 0.25): 0.0519 ± 0.00263 kcal/mol; excess molar enthalpy (x1 = 0.3): 0.0607 ± 0.00311 kcal/mol; excess molar enthalpy (x1 = 0.35): 0.0688 ± 0.00359 kcal/mol; excess molar enthalpy (x1 = 0.4): 0.0758 ± 0.00382 kcal/mol; excess molar enthalpy (x1 = 0.45): 0.0813 ± 0.00406 kcal/mol; excess molar enthalpy (x1 = 0.5): 0.0851 ± 0.0043 kcal/mol; excess molar enthalpy (x1 = 0.55): 0.0875 ± 0.00454 kcal/mol; excess molar enthalpy (x1 = 0.6): 0.088 ± 0.00454 kcal/mol; excess molar enthalpy (x1 = 0.65): 0.0863 ± 0.0043 kcal/mol; excess molar enthalpy (x1 = 0.7): 0.0822 ± 0.00406 kcal/mol; excess molar enthalpy (x1 = 0.75): 0.0758 ± 0.00382 kcal/mol; excess molar enthalpy (x1 = 0.8): 0.0669 ± 0.00335 kcal/mol; excess molar enthalpy (x1 = 0.85): 0.055 ± 0.00287 kcal/mol; excess molar enthalpy (x1 = 0.9): 0.0402 ± 0.00215 kcal/mol; excess molar enthalpy (x1 = 0.95): 0.022 ± 0.0012 kcal/mol
2 | CCOC(C)=O [ethyl acetate] + CCO | 0.0712 ± 0.00359 | 0.135 ± 0.00693 | 0.185 ± 0.00932 | 0.222 ± 0.0112 | 0.25 ± 0.0127 | 0.27 ± 0.0136 | 0.283 ± 0.0143 | 0.291 ± 0.0148 | 0.293 ± 0.0148 | 0.289 ± 0.0146 | 0.276 ± 0.0139 | 0.262 ± 0.0131 | 0.234 ± 0.0117 | 0.205 ± 0.0103 | 0.174 ± 0.00884 | 0.138 ± 0.00693 | 0.1 ± 0.00502 | 0.0554 ± 0.00287 | excess molar enthalpy (x2 = 0.55): 0.284 ± 0.0143 kcal/mol
3 | CC(=O)OC(C)=O [ethanoic anhydride] + CCO | 0.0822 ± 0.00406 | 0.154 ± 0.00789 | 0.214 ± 0.0108 | 0.266 ± 0.0134 | 0.306 ± 0.0155 | 0.339 ± 0.0172 | 0.364 ± 0.0184 | 0.382 ± 0.0194 | 0.396 ± 0.0201 | 0.405 ± 0.0206 | 0.383 ± 0.0194 | 0.363 ± 0.0184 | 0.337 ± 0.017 | 0.306 ± 0.0155 | 0.268 ± 0.0136 | 0.221 ± 0.0112 | 0.164 ± 0.00837 | 0.0939 ± 0.00478 | 

From the NIST ThermoML archive (doi:10.1021/je200595b)
